Test results: patent publication US20210220450A1, “TREATMENT OF AN IOP CONDITION” (The Research Foundation for The State University of New York, priority 2013, published 2021)

Key:
MMP-2, MMP-9, MMP-13 [1] = assay: MMP expression in PA treated HTM cells (Examples 17, 18); type: cell-based
Mmp-2, Mmp-9, Mmp-13 [2] = assay: Mmp expression in Tg-MYOCY437H angle ring tissue (Example 19); type: in vivo, mouse; settings: 5 days, vs BSA treated eyes
Procedure: Eyes were flash frozen in liquid nitrogen after outflow facility determination and subsequently dissected on ice to obtain the angle ring tissues containing the TM, as previously described (Kumar, Shah et al. 2013). Dissected TM tissues were immersed in RNAlater solution (Invitrogen, Waltham, Mass., USA) and then snap-frozen and stored at −80° C. until RNA extraction. Tissue collected was pooled (four eyes) and homogenized in TRIzol reagent for RNA isolation, per manufacturer's instructions (Life Technologies, Carlsbad, Calif., USA). RNA concentration was determined with a Nanodrop ND-1000 Spectrophotometer (Thermo Scientific, Wilmington, Del., USA). cDNA was synthesized by using High-Capacity cDNA Reverse Transcription Kit (Applied Biosystems, Waltham, Mass., USA) according to manufacturer's protocol. Quantitative real-time PCR (qRT-PCR) was performed by using Green-2-Go qPCR Mastermix-ROX (Bio Basic, Amherst, N.Y., USA) on a QuantStudio 6 Flex thermal cycler (Applied Biosystems, Carlsbad, Calif., USA). mRNA expression of Plat, Plau, Pai-1, Mmp-2, Mmp-9, and Mmp-13 in angle ring tissues was determined. Primers were designed by using Primer-BLAST (https://www.ncbi.nlm.nih.gov/tools/primer-blast/index.cgi?LINK_LOC=BlastHome; in the public domain); primer sequences are listed in Table 2. Primer specificity was confirmed by agarose gel electrophoresis and multiple-sized amplification products were absent on inspection of melting curves. Target mRNA expression values were normalized to the expression levels of Rps11 (ribosomal protein S11). The relative fold change was calculated by using the ΔΔCt method (Hu, Wang et al. 2015). Outliers identified via the Thompson Tau test were removed from analysis.

C57/1B6 mice = assay: Outflow facility in TA-treated mice injected intracamerally with AdPLAT (Example 1); type: in vivo
Procedure: Methods: Adenoviral vectors carrying cDNA of the sheep PLAT gene and a fluorescent reporter gene (mCherry) (AdPLAT) or with no transgene (AdNull) were created. Transgene expression was driven by the CMV promoter. 3 groups of C57/1B6 mice received either: (1) 20 μl of triamcinolone acetonide (TA) suspension (40 mg/ml) subconjunctivally bilaterally followed immediately by unilateral intracameral injection with 2 μl AdPLAT (3-4×10^12 VG/ml); (2) 20 μl TA subconjunctivally bilaterally followed one week later by unilateral intracameral injection with 2 μl AdPLAT; or (3) 20 μl TA subconjunctivally bilaterally followed immediately by bilateral injection with 2 μl adenovirus AdNull. IOP was measured preterminally. Outflow facility was determined using simultaneous pressure and flow measurements (see FIGS. 2A-2C). After outflow facility measurement, all AdPLAT injected eyes were dissected and viewed under a fluorescent microscope to inspect for mCherry expression in the trabecular meshwork (TM).

C57BL/6J mice = assay: Outflow facility in TA and adenovirus treated C57BL/6J mouse eyes (Example 12); type: in vivo; settings: TA exposed eyes vs naïve C57BL/6J
Procedure: Steroid, adenoviral and protein injections. Intracameral adenovirus and intravitreal protein injections were performed using a 10 μl Hamilton syringe with 36-gauge stainless steel needles (WPI Inc, Sarasota, Fla., USA) while subconjunctival injections were performed using a 100 μl Hamilton Syringe with 26-gauge needles (Precision Glide, Becton Dickinson & CO, Franklin Lakes, N.J., USA). All injections were performed under isoflurane inhalation anesthesia and topical anesthesia with 0.5% proparacaine. C57BL/6J mice undergoing adenovirus treatment received bilateral injections with 20 μl of triamcinolone acetonide (TA) suspension (40 mg/ml, Kenalog-40; Bristol-Myers Squibb, NY, USA) subconjunctivally immediately prior to the intracameral adenovirus injection. Animals were then divided into three groups (FIG. 10a): […]
Outflow facility determination: Mouse eyes were enucleated immediately after euthanasia. Outflow facility was determined using a constant pressure method, as previously described. […] Flow was constantly measured via a microfluidic flow sensor (0.07-1.5 uL/min, MFS1; Elveflow, Paris, France). […] Any eyes that developed visible leaks during outflow facility determination, or that had pressure-flow correlations with R^2<0.9, were excluded from analysis but were used for RNA quantification.

[3] = test system: sheep of the Corriedale breed; assay: Steroid-induced IOP elevation in sheep, intravitreal tPA (Examples 3, 4); type: in vivo
Procedure: Protocol 1. 8 sheep of the Corriedale breed were treated with prednisolone acetate three times a day in both eyes, leading to elevated IOP. After one week, the animals received intravitreal injections of human recombinant tPA (100, 200, 500 and 1000 μg, two animals each) dissolved in balanced salt solution (BSS) in one eye. IOP was monitored for 19 more days while the animals continued to receive treatment with prednisolone. Periodic slit lamp examination was also performed.
Protocol 2. In a second set of experiments, arginine was added to the BSS vehicle administered to the left eye to control for the relatively high concentration of the amino acid in the commercially available tPA lyophilisate. In these experiments all right eyes received 0.1 mg tPA, which concomitantly delivered 4.23 mg of arginine into the vitreous, and the left eye received this same amount of arginine, absent the tPA. On Day 1, prednisolone treatments were also begun simultaneously on both eyes.
Methods. In this experiment, the inventor sought to detect the effects of tPA treatment on prevention of steroid-induced IOP elevation. In 4 sheep tPA was injected in one eye (100 μg) and they were started on prednisolone acetate three times a day in both eyes. Animals were monitored for 11 days on continuous treatment.

[4] = test system: sheep of the Coriedale breed; assay: Steroid-induced IOP elevation in sheep, tPA injected into the anterior chamber (Example 9); type: in vivo; settings: amount of arginine associated with 0.01 ug tPA, injected alone
Procedure: Methods. Lyophilized tPA, obtained as Acetilyse® from Boehringer Ingelheim S. A. (Buenos Aires) containing arginine, was used. Five sheep of the Coriedale breed were selected. Initially all eyes received instillation of 1% prednisolone 3 times/day for 10 days to elevate their IOP from 10 mm Hg to about 23 mm Hg. Then, 0.0001 μg was injected into one of the eyes and its effect was followed for up to 55:00 hrs while the instillation of prednisolone continued in both eyes. The same protocol was implemented for the 0.001 and 0.01 μg amounts (after extended washout) in the contra lateral eyes. Arginine, which is associated with 0.01 ug tPA, was injected alone and had no effect.

PLAT = PLAT mRNA in HTM cells after prednisolone (Example 8); type: cell-based; settings: HTM cells from two donors; as early as 1 hour after prednisolone
Description: FIG. 8. Relative fold difference of PLAT mRNA from 18S mRNA amounts in HTM cells treated with prednisolone acetate (PA treated) or vehicle (Control) for […].

HTM cells = assay: Simulated outflow facility of HTM cells in artificial conventional outflow system (ACOS) (Examples 17, 18); type: cell-based; settings: PA treatment
Procedure: HTM cells were treated with 300 nM prednisolone acetate (PA) for 72 h to reduce outflow facility. They were then treated with either tissue plasminogen activator (tPA), non-enzymatically active tPA (NE-tPA) or bovine serum albumin (BSA) and perfused in artificial conventional outflow system (ACOS). Simulated outflow facilities (mean±standard deviation) (μl/min/mmHg/mm^2) was 2.4±0.6×10-1 for PA, 3±1.2×10-1 for PA+BSA, 7±1.2×10-1 for PA+tPA and 5.4±0.9×10-1 for PA+NE-tPA (p<0.0001, ANOVA).
HTM cells were treated with PA+NE-tPA and inhibitors of either LRP1 (RAP) or NMDA receptor (MK-801) and were perfused in ACOS. Simulated outflow facility (meant standard deviation μl/min/mmHg/mm^2) was 5.5±0.7×10-1 for PA+NE-tPA, 2.9±1.3×10-1 for PA+NE-tPA+MK-801, 2.7±1.2×10-1 for PA+NE-tPA+RAP and 3.3±1.3×10-1 for PA+NE-tPA+MK-801+RAP.

[5] = added to PA+NE-tPA, vs PA+NE-tPA treated cells

For `C[C@]12N[C@H](Cc3ccccc31)c1ccccc12` [MK-801, reference compound], the MMP-2 expression (MMP-2, MMP-9, MMP-13 [1]; [5]) was “significantly lower” and the MMP-9 expression (MMP-2, MMP-9, MMP-13 [1]; [5]) was “significantly lower”.
In the case of `O=C([O-])CCCc1ccccc1.[Na+]` [PBA, sodium phenylbutarate, reference compound], the Mmp-2 expression (Mmp-2, Mmp-9, Mmp-13 [2]) is reported as “no significant difference”, the Mmp-9 expression (Mmp-2, Mmp-9, Mmp-13 [2]) is reported as “higher” and the Mmp-13 expression (Mmp-2, Mmp-9, Mmp-13 [2]) is reported as “did not show any difference”.
For `CC1(C)O[C@@H]2C[C@H]3[C@@H]4CCC5=CC(=O)C=C[C@]5(C)[C@@]4(F)[C@@H](O)C[C@]3(C)[C@]2(C(=O)CO)O1` [TA, triamcinolone acetonide], the “outflow facility, mean±SD” value (C57/1B6 mice; TA only eyes, two weeks of TA, n=24) was 0.0067±0.0028 μl/min/mmHg, the “outflow facility, mean±SD” value (C57/1B6 mice; contralateral eyes injected with TA alone, concurrent experiment, n=22) was 0.0060±0.0025 μl/min/mmHg and the “reduction in outflow facility from baseline” value (C57BL/6J mice) was ~46%.
`N=C(N)NCCC[C@H](N)C(=O)O` [arginine, reference compound] was tested, and the “effect of arginine alone on steroid-increased IOP” value ([3]; 4.23 mg arginine intravitreal, prednisolone) was “does not alter”, the “effect of arginine alone on outflow facility” value ([3]; eye receiving arginine plus prednisolone (OS)) was “failed to reduce” and the “effect of arginine alone on IOP” value [4] was “had no effect”.
In the case of `CC(=O)OCC(=O)[C@@]1(O)CC[C@H]2[C@@H]3CCC4=CC(=O)C=C[C@]4(C)[C@H]3[C@@H](O)C[C@@]21C` [prednisolone, prednisolone acetate, reference compound], the “mean (±SD) IOP” value ([3]; prednisolone for 10 days, baseline 10.2 (±1.1) mmHg) is reported as 24.1(±1.6) mmHg, the PLAT expression (PLAT) is reported as “downregulation” and the “reduction in outflow facility compared to baseline” value (HTM cells) is reported as ~73%. The “MMP-13 mRNA” value (MMP-2, MMP-9, MMP-13 [1]; PA treated HTM cells) was “below detectable limits”.
